The values that follow come from patent US20260053861A1, “CELL COMPOSITIONS AND METHODS OF USING THE SAME” (THE REGENTS OF THE UNIVERSITY OF CALIFORNIA, priority 2022, published 2026).

The structures appear in SMILES notation. Counter-ions that a name gives are not always drawn.

One assay concerns hPSC-SCs.
Conditions: not given
On to `Cc1nc2n(c(=O)c1CCN1CCC(c3noc4cc(F)ccc34)CC1)CCCC2` [Risperidone], for which the z.score.t turned out to be 0.02517.

Turning to `O=[N+]([O-])c1cc([As](=O)(O)O)ccc1O` [Roxarsone], the z.score.t was −0.751.

Consider `c1ccc2c(c1)CCCc1cc(NCCN3CCOCC3)nnc1-2` [SR-95639A], for which the z.score.t is −0.4139.

For `C[n+]1cc2c3c(ccc2c2ccc4cc5c(cc4c21)OCO5)OCO3` [Sanguinarine], the z.score.t is given as −1.558.

Regarding `Br.C[N+]1([O-])[C@@H]2CC(OC(=O)[C@H](CO)c3ccccc3)C[C@H]1[C@@H]1O[C@@H]12` (stereo partly drawn) [Scopolamin-N-oxide hydrobromide], the z.score.t is given as −0.1983.

`CN1[C@@H]2C[C@@H](OC(=O)[C@H](CO)c3ccccc3)C[C@H]1[C@@H]1O[C@@H]12` [Scopolamine hydrochloride] registered a z.score.t of 0.07936.

For `COc1cc2c(cc1O)[C@@H]1Cc3ccc(OC)c(O)c3CN1CC2` [Scoulerine], the z.score.t is reported as −1.209.

For `O=C1C=C2C=C[C@@H]3C[C@@]2(O1)[C@H]1CCCCN31` [Securinine], the z.score.t is −0.9042.

Take `C#CCN(C)[C@H](C)Cc1ccccc1` [Selegiline hydrochloride]: the z.score.t is −0.9978.

In turn, `C=C1C/C(=C/C)C(=O)O[C@@H]2CCN3CC=C(COC(=O)[C@]1(C)O)[C@H]23` [Seneciphylline] had a z.score.t of 0.767.

Consider `NCCc1c[nH]c2ccc(O)cc12` [Serotonin hydrochloride], for which the z.score.t is recorded as −1.195.

In the case of `C[C@@H]1CC[C@@]2(NC1)O[C@H]1C[C@H]3[C@@H]4CC=C5C[C@@H](O)CC[C@]5(C)[C@H]4CC[C@]3(C)[C@H]1[C@@H]2C` [Solasodine], the z.score.t is 0.9178.

The compound `C1CCN2C[C@@H]3C[C@@H](CN4CCCC[C@@H]34)[C@H]2C1` [Sparteine (−)] yielded a z.score.t of 0.1131.

`C[C@]12CC[C@H]3[C@@H](CC[C@]4(O)C[C@@H](O)CC[C@]34C=O)[C@@]1(O)CC[C@@H]2C1=CC(=O)OC1` [Strophanthidin]: the z.score.t is given as −2.4.

On to `C[C@@H]1O[C@@H](O[C@H]2C[C@@H](O)[C@]3(CO)[C@H]4[C@H](O)C[C@]5(C)[C@@H](C6=CC(=O)OC6)CC[C@]5(O)[C@@H]4CC[C@]3(O)C2)[C@H](O)[C@H](O)[C@H]1O.O.O.O.O.O.O.O.O` [Strophantine octahydrate], for which the z.score.t is listed as −2.04.

Still in this assay, the particulars now being: HTS viability of hPSC-SCs in the presence of 30 mM glucose; Prestwick library; Table S4.
On to `CC(NCCc1ccc(O)cc1)C(O)c1ccc(O)cc1` (stereo not drawn) [Ritodrine hydrochloride], for which the z.score.t is 0.5046.

In the case of `COc1ccc(C2CNC(=O)C2)cc1OC1CCCC1` (stereo not drawn) [Rolipram], the z.score.t is on record as −0.01101.

As for `CN(C)[C@@H]1C(O)=C(C(=O)NCN2CCCC2)C(=O)[C@@]2(O)C(O)=C3C(=O)c4c(O)cccc4[C@@](C)(O)[C@H]3C[C@@H]12` [Rolitetracycline], the z.score.t was determined as 1.601.

Take `Cn1c([N+](=O)[O-])cnc1COC(N)=O` [Ronidazole]: the z.score.t is −0.5875.

Turning to `CC(=O)OCC(=O)NCCCOc1cccc(CN2CCCCC2)c1` [Roxatidine Acetate HCl], the z.score.t is given as 1.139.

Regarding `CC[C@H]1OC(=O)[C@H](C)[C@@H](O[C@H]2C[C@@](C)(OC)[C@@H](O)[C@H](C)O2)[C@H](C)[C@@H](O[C@@H]2O[C@H](C)C[C@H](N(C)C)[C@H]2O)[C@](C)(O)C[C@@H](C)/C(=N\OCOCCOC)[C@H](C)[C@@H](O)[C@]1(C)O` [Roxithromycin], the z.score.t is given as 0.3241.

For `CC(C)Cc1ccc([C@H](C)C(=O)O)cc1` [S-(+)-ibuprofen], the z.score.t is recorded as 1.02.

`CC(C)(C)NCC(O)c1ccc(O)c(CO)c1` (stereo not drawn) [Salbutamol]: the z.score.t came to 0.5041.

With `OCc1cc(C(O)CNCCCCCCOCCCCc2ccccc2)ccc1O` (stereo not drawn) [Salmeterol], the z.score.t is given as −1.331.

Consider `C[C@@H]1NCCc2cc(O)c(O)cc21` [Salsolinol hydrobromide], for which the z.score.t is listed as 0.4048.

As for `CC(C)(C)NC(=O)[C@@H]1C[C@@H]2CCCC[C@@H]2CN1C[C@@H](O)[C@H](Cc1ccccc1)NC(=O)[C@H](CC(N)=O)NC(=O)c1ccc2ccccc2n1` [Saquinavir mesylate], the z.score.t was −0.3033.

Take `COc1cc2ccc(=O)oc2cc1O` [Scopoletin]: the z.score.t is −1.558.

With `Clc1ccc(C(Cn2ccnc2)OCc2csc3c(Cl)cccc23)c(Cl)c1` (stereo not drawn) [Sertaconazole nitrate], the z.score.t is −1.558.

On to `CN[C@H]1CC[C@@H](c2ccc(Cl)c(Cl)c2)c2ccccc21` [Sertraline], for which the z.score.t is given as −1.388.

On to `CCC(C)(C)C(=O)O[C@H]1C[C@@H](C)C=C2C=C[C@H](C)[C@H](CC[C@@H]3C[C@@H](O)CC(=O)O3)[C@H]21` [Simvastatin], for which the z.score.t is −0.9395.

Consider `CN[C@@H]1[C@@H](O)[C@@H](O[C@@H]2[C@@H](O)[C@H](O[C@H]3OC(CN)=CC[C@H]3N)[C@@H](N)C[C@H]2N)OC[C@]1(C)O` [Sisomicin sulfate], for which the z.score.t is −0.3319.

With `COc1ccc2c(OC)c3ccoc3nc2c1OC` [Skimmianine], the z.score.t is −0.7376.

Take `CC(C)NCC(O)c1ccc(NS(C)(=O)=O)cc1` (stereo not drawn) [Sotalol hydrochloride]: the z.score.t was −1.056.

In the case of `CC(=O)N[C@@H](CC(=O)N[C@@H](CCC(=O)O)C(=O)O)C(=O)O` [Spaglumic acid], the z.score.t is 2.046.

For the compound `CN[C@@H]1[C@H](O)[C@H](NC)[C@H]2O[C@@]3(O)C(=O)C[C@@H](C)O[C@H]3O[C@@H]2[C@H]1O` [Spectinomycin dihydrochloride], the z.score.t is 1.101.

As for `O=C(CCCN1CCC2(CC1)C(=O)NCN2c1ccccc1)c1ccc(F)cc1` [Spiperone], the z.score.t was 0.09999.

With `CC(=O)S[C@@H]1CC2=CC(=O)CC[C@]2(C)[C@H]2CC[C@@]3(C)[C@@H](CC[C@@]34CCC(=O)O4)[C@H]12` [Spironolactone], the z.score.t amounted to 0.05523.

Consider `C[N+]1(C)CCC[C@H]1C(=O)[O-].Cl` [Stachydrine hydrochloride], for which the z.score.t was −0.8304.

In the case of `[H]/N=C(/N)N[C@H]1[C@H](O)[C@@H](O)[C@H](O[C@@H]2O[C@@H](C)[C@](O)(C=O)[C@H]2O[C@@H]2O[C@@H](CO)[C@H](O)[C@@H](O)[C@@H]2NC)[C@@H](N/C(N)=N\[H])[C@@H]1O` [Streptomycin sulfate], the z.score.t is on record as −1.359.

Turning to `O=C(O)CCC(=O)Nc1ccc(S(=O)(=O)Nc2nccs2)cc1` [Succinylsulfathiazole], the z.score.t is given as −0.6792.

Regarding `Clc1ccc(CSC(Cn2ccnc2)c2ccc(Cl)cc2Cl)cc1` (stereo not drawn) [Sulconazole nitrate], the z.score.t is −0.2136.

As to `Nc1ccc(S(=O)(=O)NC(=O)c2ccccc2)cc1` [Sulfabenzamide], the z.score.t is −0.9042.

Take `CC(=O)[N-]S(=O)(=O)c1ccc(N)cc1.O.[Na+]` [Sulfacetamide sodic hydrate]: the z.score.t is −0.2865.

Take `Nc1ccc(S(=O)(=O)Nc2ccc(Cl)nn2)cc1` [Sulfachloropyridazine]: the z.score.t is listed as −0.1014.

On to `Nc1ccc(S(=O)(=O)Nc2ncccn2)cc1` [Sulfadiazine], for which the z.score.t is 0.5856.

Turning to `COc1cc(NS(=O)(=O)c2ccc(N)cc2)nc(OC)n1` [Sulfadimethoxine], the z.score.t is given as 0.1469.

Turning to `COc1ncnc(NS(=O)(=O)c2ccc(N)cc2)c1OC` [Sulfadoxine], the z.score.t came out at 0.8015.

With `[H]/N=C(/N)NS(=O)(=O)c1ccc(N)cc1` [Sulfaguanidine], the z.score.t is listed as −0.2425.

As for `Cc1ccnc(NS(=O)(=O)c2ccc(N)cc2)n1` [Sulfamerazine], the z.score.t came out at 0.3022.

`COc1cnc(NS(=O)(=O)c2ccc(N)cc2)nc1` [Sulfameter]: the z.score.t worked out at 1.493.

With `Cc1cc(C)nc(NS(=O)(=O)c2ccc(N)cc2)n1` [Sulfamethazine sodium salt], the z.score.t was 0.3022.

Turning to `Cc1nnc(NS(=O)(=O)c2ccc(N)cc2)s1` [Sulfamethizole], the z.score.t was determined as 1.132.

In the case of `Cc1cc(NS(=O)(=O)c2ccc(N)cc2)no1` [Sulfamethoxazole], the z.score.t came to 0.02534.

With `COc1ccc(NS(=O)(=O)c2ccc(N)cc2)nn1` [Sulfamethoxypyridazine], the z.score.t is recorded as 0.2139.

For `COc1cc(NS(=O)(=O)c2ccc(N)cc2)ncn1` [Sulfamonomethoxine], the z.score.t was found to be 0.453.

With `Nc1ccc(S(N)(=O)=O)cc1` [Sulfanilamide], the z.score.t is −0.4325.

Turning to `Nc1ccc(S(=O)(=O)Nc2ccnn2-c2ccccc2)cc1` [Sulfaphenazole], the z.score.t stood at 0.4626.

Turning to `Nc1ccc(S(=O)(=O)Nc2ccccn2)cc1` [Sulfapyridine], the z.score.t is reported as 1.853.

As for `Nc1ccc(S(=O)(=O)Nc2cnc3ccccc3n2)cc1` [Sulfaquinoxaline sodium salt], the z.score.t is listed as 1.117.

As to `O=C(O)c1cc(/N=N/c2ccc(S(=O)(=O)Nc3ccccn3)cc2)ccc1O` [Sulfasalazine], the z.score.t came to 0.1344.

Regarding `Nc1ccc(S(=O)(=O)Nc2nccs2)cc1` [Sulfathiazole], the z.score.t is on record as 0.9109.

Consider `O=C1C(CC[S+]([O-])c2ccccc2)C(=O)N(c2ccccc2)N1c1ccccc1` (stereo not drawn) [Sulfinpyrazone], for which the z.score.t was found to be 0.3922.

Consider `Cc1noc(NS(=O)(=O)c2ccc(N)cc2)c1C` [Sulfisoxazole], for which the z.score.t was found to be 0.1556.

For `CC1=C(CC(=O)O)c2cc(F)ccc2/C1=C\c1ccc([S+](C)[O-])cc1` (stereo not drawn) [Sulindac], the z.score.t was −0.2425.

As to `COc1cc([S+](C)[O-])ccc1-c1nc2ncccc2[nH]1` (stereo not drawn) [Sulmazole], the z.score.t was determined as 0.6376.

With `CCCCCCCCNC(C)C(O)c1ccc(SC(C)C)cc1` (stereo not drawn) [Suloctidil], the z.score.t is recorded as −0.649.

`CCN1CCCC1CNC(=O)c1cc(S(N)(=O)=O)ccc1OC` (stereo not drawn) [Sulpiride]: the z.score.t came to 0.1594.

Regarding `CC(C(=O)O)c1ccc(C(=O)c2cccs2)cc1` (stereo not drawn) [Suprofen], the z.score.t is 0.2361.

In the case of `CCCCC1(COC(=O)CCC(=O)O)C(=O)N(c2ccccc2)N(c2ccccc2)C1=O` [Suxibuzone], the z.score.t worked out at 0.9352.
